# Measured values: patent US8895019B2, “Biofilm treatment” (Oral Health Australia Pty Ltd, priority 2007, dated 2014)
# Like-named read-outs stand apart in the source and are kept apart here. Marks after values point to notes of the source that are not given here.
# Columns and labels:
# [1] = test system: P. gingivalis (ATCC 33277) biofilm; assay: Viability of cells dispersed by Oxantel treatment, static 24 well biofilm assay, colony forming units; format: cell-based, Porphyromonas gingivalis; settings: especially for the 12.5 μM Oxantel treated biofilm, 30 min
# Experimental: To test the viability of cells dispersed by Oxantel treatment, a static biofilm assay was performed as described above but with slight modifications. Briefly P. gingivalis (ATCC 33277) was allowed to form biofilm in 24 well microplates after 18 h incubation. The free floating planktonic cells were first removed and the biofilm washed once with PBS. 1 mL of 125 uM or 12.5 uM of Oxantel or sterile water […] was added to each well and incubated for 30 min. The number of dispersed P. gingivalis cells that are still viable was determined by cultural analysis on horse blood agar plates after serial dilution in BHI.
# [2] = test system: P. gingivalis ATCC 33277 biofilm; assay: Flowcell biofilm culture and CLSM analysis (COMSTAT); format: cell-based, Porphyromonas gingivalis
# Source text: The biofilm culture of P. gingivalis ATCC 33277 in flow cells was similar to that previously described with several modifications. A 3-channel flow cell system (Stovall Life Science, USA) was set up in an anaerobic chamber (MK3 Anaerobic workstation; Don Whitley Scientific Ltd.) and was modified with silicon pump tubing (Gilson, France) and stopcocks for inoculation, testing and staining of the bacterial biofilms. All parts were assembled and 0.5% sodium hypochlorite was pumped into the system and left overnight to sterilise the system. Sterile water (200 mL) was then used to flush the system before growth medium addition. The system was inoculated with 1 mL of an exponentially growing P. gingivalis diluted to 0.1 OD600. The system was incubated for 1 h prior to constant flow (0.2 mL/min) of 5× diluted BHI (Oxoid) supplemented with 0.1 g/L cysteine, 1 mg/L heamin and 1 mg/L vitamin K. […] The flow of medium was resumed for another 10 min to wash off any unbound cells due to testing. BacLight stain (Molecular Probes) was then used to stain the biofilm in situ (see below).
# Confocal laser scanning microscopy (CLSM) of the bacterial biofilms was carried out on a Meta 510 Confocal Microscope with an inverted stage (Zeiss). Horizontal (xy) optodigital sections, each 2 μm thick over the entire thickness of the biofilm (z) were imaged using a 63× objective at 512×512 pixel (0.28 μm per pixel), with each frame at 143.86 μm (x)×143.86 μm (y). To determine reproducibility across the biofilm 5 images at random positions from each of two biological replicates were obtained at wavelengths of 488 nm and 568 nm for each channel. All images obtained were analysed using COMSTAT software. Microcolonies were defined as cluster of cells with >500 pixel counts.
# P. gingivalis ATCC 33277 = assay: Effect of Oxantel on growth of P. gingivalis ATCC 33277 in liquid culture over 50 h; format: cell-based; settings: Porphyromonas gingivalis, ATCC33277; P. gingivalis ATCC 33277, growth over 50 h
# [3] = test system: P. gingivalis ATCC 33277 biofilm; assay: Biofilm formation in static 96 well model, crystal violet stain; format: cell-based, Porphyromonas gingivalis
# Experimental: P. gingivalis biofilm formation over 48 h in a static 96 well model was determined as described previously. Briefly P. gingivalis ATCC 33277 cells were resuspended to a final cell density of 2.5×10^7 before mixing with the test substances followed by transferring into 96 well flat bottom plates and incubated anaerobically at 37° C. Assessment of the biofilm mass was carried out at 24 h and 48 h by washing the cells twice with 250 μL of ultra pure water to remove loosely adhered cells followed by drying at 37° C. for 3 h. The dried biofilm was then stained in a solution of 0.1% crystal violet for 15 min and washed 2 times with 250 μL ultra pure water. The crystal violet stain was then dissolved from the biofilm using a solution of 80% ethanol and 20% acetone for 2 min through repeated pipetting before transferring to a new 96 well plate for measurement of the optical density at 620 nm.
# P. gingivalis W50 = assay: Susceptibility of P. gingivalis to Frd inhibiting agents: growth in liquid culture, OD 620 nm over 50 h; format: cell-based, Porphyromonas gingivalis
# Experimental: (§1) The effect of Frd inhibiting agents on P. gingivalis was carried out in liquid cultures. Briefly W50 was cultured in 200 mL BHI medium until OD of 0.6 (˜2.9×10^8 cfu/mL). The cells were then resuspended in fresh growth medium to a final concentration of 2.5×10^7 cfu/mL. Oxantel pamonate, morantel citrate and thiabendazole (Sigma) were dissolved in DMSO to achieve stock concentrations of 250 mM. 4 μL of the test solution was then mixed with 196 μL of cell suspension and transferred into 96 well flat bottom plates followed by incubation at 37° C. under anaerobic conditions and monitored hourly over a 50 h period by measuring the optical density of the culture at 620 nm using an iEMS microplate reader (Labsystems OY Research Technologies Division). Mean generation times of P. gingivalis in the presence of different inhibiting agents were calculated by […] where Nt and N0 are cells population at time t and time zero, respectively.
# [4] = Solubility limit seen in the growth assay; format: physicochemical; settings: growth assay medium (P. gingivalis W50 liquid culture), 37 °C, kinetic from dmso stock, read-out: insolubility (concentration above which insoluble)
# Experimental: as §1
# [5] = 12.5 μM Oxantel vs Control, Biological Replicate 1
# [6] = 12.5 μM Oxantel, Biological Replicate 1
# [7] = 12.5 μM Oxantel, Biological Replicate 2, first channel
# [8] = 12.6 μM Oxantel (so in the source), Biological Replicate 2, second channel
# [9] = 125 μM Oxantel vs Control, Biological Replicate 1
# [10] = 125 μM Oxantel, Biological Replicate 1
# [11] = Biological Replicate 2, based on average of both replicates over the control sample
# [12] = mature biofilm treated with Oxantel (125 μM or 12.5 μM, 30 min) vs control, P<0.01
# [13] = Porphyromonas gingivalis, P. gingivalis W50, growth over 50 h, read-out: MIC
structure (smiles),measurement,setting,value
CN1CCCN=C1/C=C/c1cccc(O)c1 [Oxantel],viability of cells released from the biofilm,[1],remained viable
same,Total biomass,"[2]; 12.5 μM Oxantel added to 16 h biofilm, Biological Replicate 1, COMSTAT, 3-channel flow cell",1.26^a μm^3/μm^2
same,Average microcolony area % reduction,[2]; [5],37.2%
same,Average thickness % reduction,[2]; [5],39.7%
same,Total biomass % reduction,[2]; [5],30.1%
same,"Ave microcolonies (by pixel, minimum 500)",[2]; [6],17.4
same,Average microcolony area,[2]; [6],147.65^a μm^2
same,Average thickness,[2]; [6],0.70^a μm
same,Surface to biovolume ratio,[2]; [6],2.04^a μm^2/μm^3
same,"Ave microcolonies (by pixel, minimum 500)",[2]; [7],18.4
same,Average microcolony area,[2]; [7],119.571^a μm^2
same,Average thickness,[2]; [7],0.911^a μm
same,Surface to biovolume ratio,[2]; [7],2.331^a μm^2/μm^3
same,Total biomass,[2]; [7],1.451^a μm^3/μm^2
same,"Ave microcolonies (by pixel, minimum 500)",[2]; [8],19.2
same,Average microcolony area,[2]; [8],104.881^a μm^2
same,Average thickness,[2]; [8],0.891^a μm
same,Surface to biovolume ratio,[2]; [8],2.541^a μm^2/μm^3
same,Total biomass,[2]; [8],1.621^a μm^3/μm^2
same,Total biomass,"[2]; 125 μM Oxantel added to 16 h biofilm, Biological Replicate 1",1.00^a μm^3/μm^2
same,Average microcolony area % reduction,[2]; [9],50.94%
same,Average thickness % reduction,[2]; [9],63.2%
same,Total biomass % reduction,[2]; [9],44.4%
same,"Ave microcolonies (by pixel, minimum 500)",[2]; [10],20.8
same,Average microcolony area,[2]; [10],115.42^a μm^2
same,Average thickness,[2]; [10],0.43^a μm
same,Surface to biovolume ratio,[2]; [10],2.27^b μm^2/μm^3
same,Average microcolony area % reduction,[2]; [11],37.9%
same,Average thickness % reduction,[2]; [11],49.9%
same,Total biomass % reduction,[2]; [11],42.8%
same,number of microcolonies,[2]; Oxantel treated vs control samples,no significant difference
same,biofilm depth,[2]; [12],significant reduction
same,size of microcolonies,[2]; [12],significant reduction
same,MIC,P. gingivalis ATCC 33277,125 µM
same,concentration that significantly reduced the biofilm mass at 24 h,"[3]; ATCC 33277, 24 h biofilm, subMIC",≥ 0.1 µM
same,concentration necessary for an inhibitory effect on the biofilm mass at 48 h,"[3]; ATCC 33277, 48 h biofilm",≥ 3.9 µM
same,concentration with positive inhibition of growth,"P. gingivalis W50; P. gingivalis W50, from the growth curves",more than 15 μM
same,MIC,P. gingivalis W50; [13],112 µM
Cc1ccsc1/C=C/C1=NCCCN1C [Morantel],MIC,"P. gingivalis W50; P. gingivalis W50, growth over 50 h, read-out: MIC",2800 µM
same,MIC,"P. gingivalis W50; Porphyromonas gingivalis, W50, 50 h, P. gingivalis W50, growth over 50 h",~3000 µM
c1ccc2[nH]c(-c3cscn3)nc2c1 [Thiabendazole],solubility,[4],> 3000 µM
same,concentration required for slight inhibitory effects on the growth,"P. gingivalis W50; P. gingivalis W50, growth over 50 h",more than 1 mM
same,MIC,P. gingivalis W50; [13],> 3000 µM
